Assay results taken from article PMC9958325 (Nature Communications, 2023).
Where “and” joins values, the source holds several entries; their conditions need not be identical. Equal entries are not always repeated. Where two headings read alike, the source gives them in different places.

Tests used:
[1] = molecular target: T1, human calpain (Homo sapiens, UniProt P07384); assay: Human calpain activity assay; type: biochemical; conditions: for %inhibition against humanCalpain: triplicate
T1 sequence (P07384 2-714): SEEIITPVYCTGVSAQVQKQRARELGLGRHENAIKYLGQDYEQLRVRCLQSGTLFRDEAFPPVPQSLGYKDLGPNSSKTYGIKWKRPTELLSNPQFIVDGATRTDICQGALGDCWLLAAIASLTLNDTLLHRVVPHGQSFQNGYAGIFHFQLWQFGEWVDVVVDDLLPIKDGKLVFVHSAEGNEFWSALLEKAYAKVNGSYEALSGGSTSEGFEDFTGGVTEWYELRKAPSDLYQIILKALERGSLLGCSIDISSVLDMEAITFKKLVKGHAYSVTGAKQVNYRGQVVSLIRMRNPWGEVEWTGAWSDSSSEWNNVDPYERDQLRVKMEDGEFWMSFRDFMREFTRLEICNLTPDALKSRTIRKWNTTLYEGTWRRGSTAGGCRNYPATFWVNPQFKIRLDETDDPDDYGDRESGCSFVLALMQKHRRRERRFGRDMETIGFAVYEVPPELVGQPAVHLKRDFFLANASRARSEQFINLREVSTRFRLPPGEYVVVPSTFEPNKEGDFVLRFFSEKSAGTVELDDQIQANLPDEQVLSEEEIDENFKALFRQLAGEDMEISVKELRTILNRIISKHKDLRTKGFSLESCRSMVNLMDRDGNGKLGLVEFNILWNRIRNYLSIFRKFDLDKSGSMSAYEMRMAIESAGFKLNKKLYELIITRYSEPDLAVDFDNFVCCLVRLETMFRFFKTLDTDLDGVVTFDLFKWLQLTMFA
T1 sequence (P04632 1-268 partner): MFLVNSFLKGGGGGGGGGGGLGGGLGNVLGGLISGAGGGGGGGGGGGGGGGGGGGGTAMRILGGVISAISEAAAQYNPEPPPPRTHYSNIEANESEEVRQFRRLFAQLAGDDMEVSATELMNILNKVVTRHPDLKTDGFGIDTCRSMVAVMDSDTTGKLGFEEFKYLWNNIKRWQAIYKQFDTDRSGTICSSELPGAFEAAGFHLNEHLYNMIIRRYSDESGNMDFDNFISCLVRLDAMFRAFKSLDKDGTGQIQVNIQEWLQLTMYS

[2] = tested on: SARS-CoV-2 UT-NCD1757-1N/ο BA.2.75; assay: microbe, parasite or virus in culture; type: cell-based
[3] = tested on: SARS-CoV-2 TKYTS14631/ο BA.5; assay: microbe, parasite or virus in culture; type: cell-based
[4] = tested on: SARS-CoV-2 TKYX00012/ο BA.1; assay: microbe, parasite or virus in culture; type: cell-based
[5] = tested on: HeLa-ACE2-TMPRSS2 cells; assay: Intracellular concentrations of compounds (LC/MS), HeLa-ACE2-TMPRSS2 cells; conditions: 6 h; for Intracellular amount relative to nirmatrelvir: HeLa-ACE2-TMPRSS2 cells; for Intracellular amount, individual: listed as TKB-0248
[6] = tested on: SARS-CoV-2^WK521 in A549-ACE2-TMPRSS2 cells; assay: Antiviral assay, A549-ACE2-TMPRSS2 cells, WK521; type: cell-based
[7] = Pharmacokinetic study in PXB-mice (human liver-chimeric)
[8] = tested on: SARS-CoV-2^WK-521; assay: microbe, parasite or virus in culture; type: cell-based; parameters: EC95, individual assays / EC95, Average: unit: µM
[9] = tested on: SARS-CoV-2 TKYS02037/ο BA.2; assay: microbe, parasite or virus in culture; type: cell-based
[10] = tested on: SARS-CoV-2^WK521 in HeLa-ACE2-TMPRSS2 cells; assay: Antiviral assay, HeLa-ACE2-TMPRSS2 cells, WK521; type: cell-based

Structure (SMILES): CC(C)(C)[C@H](NC(=O)C(F)(F)F)C(=O)N1C[C@H]2[C@@H]([C@H]1C(=S)N[C@@H](C[C@@H]1CCNC1=O)C(=O)c1nc3c(F)cccc3s1)C2(C)C [TKB248]
- Effect on human calpain (in words) [1]: neither of human cysteine enzymes, cathepsin L and calpain, were significantly affected
- %inhibition against humanCalpain ([1]; 0.000128 µM): 0%
- %inhibition against humanCalpain ([1]; 0.00064 µM): 0%
- %inhibition against humanCalpain ([1]; 0.0032 µM): 0%
- %inhibition against humanCalpain ([1]; 0.08 µM): 0%
- %inhibition against humanCalpain ([1]; 0.4 µM): 0%
- %inhibition against humanCalpain ([1]; 2 µM): 1%
- IC50 ([1]; 60 minute incubation, mean ± 1 S.D., n=3, read-out: IC50, human calpains): > 2000 nM
- EC50 ([2]; read-out: EC50 against UT-NCD1757-1N/ο BA.2.75): 430 ± 91 nM
- EC50 ([2]; read-out: EC50 ο BA2.75, individual assays): 430 nM and 320 nM and 250 nM
- EC50 ([3]; read-out: EC50 against TKYTS14631/ο BA.5): 70 ± 8 nM
- EC50 ([3]; read-out: EC50 ο BA5, Average): 70.7 nM
- EC50 ([3]; read-out: EC50 ο BA5, individual assays): 67.1 nM and 80 nM and 65 nM
- EC50 ([4]; read-out: EC50 against KTKYX00012/ο BA.1): 282 ± 43 nM
- EC50 ([4]; read-out: EC50 ο BA1, Average): 282 nM
- EC50 ([4]; read-out: EC50 ο BA1, individual assays): 290 nM and 235 nM and 320 nM
- Intracellular amount relative to nirmatrelvir ([5]; 50 µM): 318 fold
- Intracellular amount relative to nirmatrelvir ([5]; 100 µM): 165 fold
- Intracellular amount, avg ([5]; Hela ACE2 TMPRSS2, 10uM): 295.717 pmol(total)
- Intracellular amount, individual ([5]; Hela ACE2 TMPRSS2, 10uM): 295.283 pmol(total) and 296.151 pmol(total)
- Intracellular amount, avg ([5]; Hela ACE2 TMPRSS2, 50uM): 570.720 pmol(total)
- Intracellular amount, individual ([5]; Hela ACE2 TMPRSS2, 50uM): 643.805 pmol(total) and 497.635 pmol(total)
- Intracellular amount, avg ([5]; Hela ACE2 TMPRSS2, 100uM): 630.843 pmol(total)
- Intracellular amount, individual ([5]; Hela ACE2 TMPRSS2, 100uM): 605.189 pmol(total) and 656.496 pmol(total)
- EC50 ([6]; SARS-CoV-2^WK521, read-out: EC50, A549-ACE2-TMPRSS2): 199 ± 5 nM
- EC50 ([6]; source data, listed as TKB0248, read-out: EC50, A549-AEC2-TMPRSS2, individual assays): 200 nM and 204 nM and 193 nM
- EC50 ([6]; source data, read-out: EC50, A549-AEC2-TMPRSS2, Average): 199 nM
- Cmax ([7]; N = 3 male PXB-mouse, 10 mg/kg p.o.): 1,925¶ ng/mL
- T1/2 ([7]; N = 3 male PXB-mouse, 10 mg/kg, oral (p.o.) value for TKB245): 4.34¶ h
- Plasma concentration ([7]; PXB-mice, i.v. 10 mg/kg, 10 min, individual mice, listed as TKB0248, 10 mg/kg): 8186.6 ng/mL and 8038.7 ng/mL and 9327.7 ng/mL
- Plasma concentration ([7]; PXB-mice, i.v. 10 mg/kg, 0.17 hr, individual mice, listed as TKB0248, 10 mg/kg): 8190 ng/mL and 8040 ng/mL and 9330 ng/mL
- Plasma concentration ([7]; PXB-mice, i.v. 10 mg/kg, 60 min, individual mice, listed as TKB0248, 10 mg/kg): 3193.2 ng/mL and 4290.6 ng/mL and 4927 ng/mL
- Plasma concentration ([7]; PXB-mice, i.v. 10 mg/kg, 1 hr, individual mice, listed as TKB0248, 10 mg/kg): 3190 ng/mL and 4290 ng/mL and 4930 ng/mL
- Plasma concentration ([7]; PXB-mice, i.v. 10 mg/kg, 240 min, individual mice, listed as TKB0248, 10 mg/kg): 955 ng/mL and 1072.2 ng/mL and 1659.6 ng/mL
- Plasma concentration ([7]; PXB-mice, i.v. 10 mg/kg, 4 hr, individual mice, listed as TKB0248, 10 mg/kg): 960 ng/mL and 1070 ng/mL and 1660 ng/mL
- Plasma concentration ([7]; PXB-mice, i.v. 10 mg/kg, 480 min, individual mice, listed as TKB0248, 10 mg/kg): 290 ng/mL and 301.5 ng/mL and 497.6 ng/mL
- Plasma concentration ([7]; PXB-mice, i.v. 10 mg/kg, 8 hr, individual mice, listed as TKB0248, 10 mg/kg): 290 ng/mL and 300 ng/mL and 500 ng/mL
- Plasma concentration ([7]; PXB-mice, i.v. 10 mg/kg, 1440 min, individual mice, listed as TKB0248, 10 mg/kg): 13.9 ng/mL and 20.8 ng/mL and 20 ng/mL
- Plasma concentration ([7]; PXB-mice, i.v. 10 mg/kg, 24 hr, individual mice, listed as TKB0248, 10 mg/kg): 0.01 µg/ml and 0.02 µg/ml (2×)
- Plasma concentration ([7]; PXB-mice, p.o. 10 mg/kg, 10 min, individual mice, listed as TKB0248, 10 mg/kg): 803.8 ng/mL and 639.6 ng/mL and 800.1 ng/mL
- Plasma concentration ([7]; PXB-mice, p.o. 10 mg/kg, 0.17 hr, individual mice, listed as TKB0248, 10 mg/kg): 0.8 µg/ml (2×) and 0.64 µg/ml
- Plasma concentration ([7]; PXB-mice, p.o. 10 mg/kg, 60 min, individual mice, listed as TKB0248, 10 mg/kg): 2400.6 ng/mL and 1592.1 ng/mL and 1781.9 ng/mL
- Plasma concentration ([7]; PXB-mice, p.o. 10 mg/kg, 1 hr, individual mice, listed as TKB0248, 10 mg/kg): 2400 ng/mL and 1590 ng/mL and 1780 ng/mL
- Plasma concentration ([7]; PXB-mice, p.o. 10 mg/kg, 240 min, individual mice, listed as TKB0248, 10 mg/kg): 1886.1 ng/mL and 944.6 ng/mL and 788.3 ng/mL
- Plasma concentration ([7]; PXB-mice, p.o. 10 mg/kg, 4 hr, individual mice, listed as TKB0248, 10 mg/kg): 1890 ng/mL and 940 ng/mL and 790 ng/mL
- Plasma concentration ([7]; PXB-mice, p.o. 10 mg/kg, 480 min, individual mice, listed as TKB0248, 10 mg/kg): 645.5 ng/mL and 263.6 ng/mL and 711 ng/mL
- Plasma concentration ([7]; PXB-mice, p.o. 10 mg/kg, 8 hr, individual mice, listed as TKB0248, 10 mg/kg): 650 ng/mL and 260 ng/mL and 710 ng/mL
- Plasma concentration ([7]; PXB-mice, p.o. 10 mg/kg, 1440 min, individual mice, listed as TKB0248, 10 mg/kg): 66.2 ng/mL and 80.3 ng/mL and 54.4 ng/mL
- Plasma concentration ([7]; PXB-mice, p.o. 10 mg/kg, 24 hr, individual mice, listed as TKB0248, 10 mg/kg): 70 ng/mL and 80 ng/mL and 50 ng/mL
- Oral F ([7]; male PXB-mouse 10 mg/kg i.v. and p.o., dose-normalized AUC ratio, 10 mg/kg): 72% and 72¶ %
- Plasma concentration ([7]; p.o., 10 min, individual animals (3 per time point), LC/MS/MS, listed as TKB0248): 803.78 ng/mL and 639.58 ng/mL and 800.12 ng/mL
- Plasma concentration ([7]; p.o., 60 min, individual animals (3 per time point), LC/MS/MS, listed as TKB0248): 2400.63 ng/mL and 1592.07 ng/mL and 1781.87 ng/mL
- Plasma concentration ([7]; p.o., 240 min, individual animals (3 per time point), LC/MS/MS, listed as TKB0248): 1886.06 ng/mL and 944.61 ng/mL and 788.27 ng/mL
- Plasma concentration ([7]; p.o., 480 min, individual animals (3 per time point), LC/MS/MS, listed as TKB0248): 645.53 ng/mL and 263.61 ng/mL and 711.03 ng/mL
- Plasma concentration ([7]; p.o., 1440 min, individual animals (3 per time point), LC/MS/MS, listed as TKB0248): 66.21 ng/mL and 80.35 ng/mL and 54.38 ng/mL
- EC95, Average [8]: 0.8712
- EC95, individual assays [8]: 0.89 and 0.81 and 0.885 and 0.9
- SARS-CoV2 RNA VeroE6 cell-based assay EC95 [8]: 870 ± 40 nM
- EC50 ([8]; read-out: EC50, Average): 225 nM
- EC50 ([8]; read-out: EC50, VeroE6 + 2 µM CP100356): 30 ± 30 nM
- EC50 ([8]; read-out: EC50, VeroE6 with CP100356, Average): 35 nM
- EC50 ([8]; read-out: EC50, VeroE6 with CP100356, individual assays): 23 nM and 65 nM and 17 nM
- EC50 ([8]; read-out: EC50, individual assays): 310 nM and 230 nM and 240 nM and 120 nM
- EC50 ([8]; read-out: SARS-CoV2 RNA VeroE6 cell-based assay EC50): 220 ± 80 nM
- EC50 ([9]; read-out: EC50 against TKYVS2037/ο BA.2): 210 ± 87 nM
- EC50 ([9]; read-out: EC50 ο BA2, individual assays): 150 nM
- EC50 ([10]; SARS-CoV-2^WK521, read-out: EC50, HeLa-ACE2-TMPRSS2): 160 ± 75 nM
- EC50 ([10]; source data, listed as TKB0248, read-out: EC50, HeLa-AEC2-TMPRSS2, individual assays): 230 nM and 80 nM and 170 nM
